The subject of one data set is T. b. rhodesiense. To be noted: oral prodrug; cited from earlier work.
A further data set deals with African trypanosomes. Further details: method as in PMID 18722336, PMID 19620327. The following applies: oral administration; cited from earlier work.
Data set [1] has as its system T. b. rhodesiense KETRI 2537. The data set can be described thus: Efficacy in KETRI vervet monkey model of second stage HAT. It counts as in vivo. An excerpt:
The current study used the KETRI vervet monkey model of HAT, a model developed over 30 years ago through the experimental infection of vervet monkeys with T. b. rhodesiense. […] Trypanosomes were identified in peripheral blood first and cerebrospinal fluid (CSF) second, allowing the disease to be classified into an early (haemo-lymphatic) and a late (central nervous system [CNS]) stage, similar to the human disease. […] Monkey trypanosomal infections have been determined to be invariably fatal without therapeutic intervention, a characteristic also widely accepted as true for human sleeping sickness.
Parasitaemia and CSF parasitosis were monitored using established techniques for blood trypanosomes and CSF trypanosomes, respectively.
Due to a regulated freeze on acquisitions of new non-human primates, only six monkeys were available for the IM DB829 study. These animals were divided into three treatment groups, each consisting of one male and one female, to compare dose-responsiveness between consecutive- and alternate-day dosing. Monkeys were treated with 2.5 or 5 mg/kg/day for 5 consecutive days or with 5 mg/kg/day on alternating days for a total of 5 doses (Table 1).
Twelve additional monkeys were available for the oral DB868 efficacy study. These animals were, before infection, divided into three groups, each consisting of two males and two females. DB868 was administered orally to each group at 3, 10 or 20 mg/kg/day for 10 consecutive days (Table 2).
Parasitaemia post-infection was monitored daily, using ear-prick capillary blood, through the completion of DB868 and DB829 treatment. […] At 300 days post-LDD, monkeys were considered cured if they remained normal clinically and parasite-free in the blood and CSF. Pharmacokinetic outcomes were monitored for a minimum of 60 days post-LDD as described previously. […] Monkeys that relapsed, characterized by trypanosome recrudescence in the blood or CSF, were rescue-treated with melarsoprol.

Data set [2] concerns T. b. rhodesiense KETRI 2537. To be noted: cited from earlier work.
Data set [3] can be described thus: Plasma pharmacokinetics in infected vervet monkeys (HPLC-MS/MS). The data set is classed as in vivo, vervet monkey. The following applies: for geometric mean plasma concentration (range) of prodrug DB868: within 1 h post-LDD. An excerpt: (§1) Parasitaemia post-infection was monitored daily, using ear-prick capillary blood, through the completion of DB868 and DB829 treatment. Following the last drug dose (LDD), blood and CSF samples were examined for trypanosomes at 1, 4, 7, and 14 days to determine the end of treatment (EoT) response; monkeys which were positive for trypanosomes in either blood or CSF at the end of this 14-day period were classified as treatment failures/not cured while those that were free of trypanosomes were classified as provisionally cured. After the 14-day EoT evaluations, parasitaemia examinations were continued twice weekly to ≥ 300 days post-LDD as described previously. Additionally, physical examinations and haematological assessments were carried out once weekly up to 28 days post-LDD, once every two weeks between 28 and 100 days post-LDD, and monthly thereafter until the end of the study as described previously. At 300 days post-LDD, monkeys were considered cured if they remained normal clinically and parasite-free in the blood and CSF. Pharmacokinetic outcomes were monitored for a minimum of 60 days post-LDD as described previously. To facilitate the collection of blood and CSF for these assessments, the monkeys were anaesthetised with an IM injection of ketamine HCl (10–15 mg/kg) and diazepam (0.5 mg/kg). Monkeys that relapsed, characterized by trypanosome recrudescence in the blood or CSF, were rescue-treated with melarsoprol. Melarsoprol (Mel B), supplied by the World Health Organization as a 3.6% (w/v) solution in propylene glycol, was administered intravenously at 3.6 mg/kg/day for 4 consecutive days.
Plasma samples were processed for quantification of DB868 and DB829 by high performance liquid chromatography-tandem mass spectrometry (HPLC-MS/MS) as described previously. CSF samples were processed in a manner similar to that of plasma samples.
Clinical and haematological data were analysed using Statview for Windows Version 5.0.1 (1995–1998; SAS Institute Inc., Cary, NC, USA). Repeated measures ANOVA, with Fisher’s PLSD post hoc test, was used to test the effect of trypanosome infection on haematologic parameters in comparison with respective baseline values (α = 0.05). In addition, the effects of IM DB829 and oral DB868 on these haematologic parameters in monkeys with confirmed second stage HAT were tested. Pharmacokinetic outcomes were recovered using traditional non-compartmental methods using Phoenix WinNonlin (version 6.2; Pharsight, Mountain View, CA, USA).

On the set-up of data set [4]: method as in earlier work. To be noted: cited from earlier work.
The subject of a further data set is T. b. brucei GVR35. Details: method as in PMID 19620327. The following applies: cited from earlier work.
Data set [5] can be described thus: Tolerability of dose regimens in infected vervet monkeys. It counts as in vivo, vervet monkey. To be noted: all IM DB829 and oral DB868 dose regimens.
Text: as §1, with “Monkeys that relapsed, characterized by trypanosome recrudescence in the blood or CSF, were rescue-treated with melarsoprol. Melarsoprol (Mel B), supplied by the World Health Organization as a 3.6% (w/v) solution in propylene glycol, was administered intravenously at 3.6 mg/kg/day for 4 consecutive days.” left out

Data set [6] relates to human intestinal cell line (Caco-2). Further details: method as in PMID 12458675, PMID 15294005. The following applies: cited from earlier work.
The mark [7] stands for this setting: all oral DB868 regimens combined.
[8] abbreviates: oral 10 mg/kg × 10 days, monkeys 688M, 690F, 695M, 697F, 10 mg/kg.
Where [9] appears, read: oral 20 mg/kg × 10 days, monkeys 573F, 679F, 689M, 696M, 20 mg/kg.

Where “and” joins values, the source holds several entries; their conditions need not be identical. Identical values can stand only once. Entries after “also recorded” stand apart in the source; their conditions may differ. Like-named read-outs stand apart in the source and are kept apart here.

Consider `CON=C(N)c1ccc(-c2ccc(-c3ccc(C(N)=NOC)cn3)o2)cc1` [DB844], for which the “cure rate against second stage HAT in non-human primates” value with T. b. rhodesiense is given as 3/7. Moreover, in the data set on African trypanosomes, the “efficacy in murine models of first and second stage HAT” value was “fully curative”.

Regarding `CONC(=N)c1ccc(-c2ccc(-c3ccc(C(=N)NOC)cn3)o2)nc1` [DB868, 2,5-bis[5-(N-methoxyamidino)-2-pyridyl]furan], in data set [1] (setting [7]), the “Final efficacy assessment at 300 days post-LDD of DB868, Overall Results (combined cure rate)” value is recorded as 2/10. The “Provisional efficacy at 100 days post-LDD of DB868, Overall Results” value in data set [1] (setting [7]) is 4/10. Further, the “Provisional efficacy at EoT, Overall Results” value in [1] (setting [7]) is 8/10. The Time to relapse in data set [1] (oral 3 mg/kg × 10 days, 28–37 DPI, monkey 687M) is 14 days post-LDD; in data set [1] (oral 10 mg/kg × 10 days, 28–37 DPI, individual monkeys, 10 mg/kg) it was 56 days post-LDD and 28 days post-LDD; in data set [1] (oral 20 mg/kg × 10 days, 28–37 DPI, individual monkeys, 20 mg/kg), 161 days post-LDD and 133 days post-LDD and 77 days post-LDD. Further, the Cured/treated entry was “did not cure any monkey and did not achieve cure in any monkey and 0/2” in [1] (oral 3 mg/kg × 10 days, 3 mg/kg); 1/4 in data set [1] (oral 10 mg/kg × 10 days); 1/4 in [1] (oral 20 mg/kg × 10 days). The “Provisional efficacy at EoT” value is given as “Not cured” in data set [1] (oral 3 mg/kg × 10 days, monkeys 670F, 687M); “Cured” in data set [1] (oral 10 mg/kg × 10 days, monkeys 688M, 690F, 695M, 697F); “Cured” in [1] (oral 20 mg/kg × 10 days, monkeys 573F, 679F, 689M, 696M). Moreover, the “drug dose after which brief period of aparasitaemia started” value in data set [1] (oral 3 mg/kg/day × 10 days, 34 DPI) is 7 drug dose. In [1] (oral 10 mg/kg × 10 days, 28–37 DPI), the “Time to initial clearance of trypanosomes from body fluids (blood and CSF)” value amounted to 1 days post-LDD. Also, the “Final efficacy assessment at 300 days post-LDD of DB868” value in [1] (setting [8]) is “R and Cured”; in data set [1] (setting [9]), “R and Cured”. For the same compound, the “Provisional efficacy at 100 days post-LDD of DB868” value is “R and Cured” in data set [1] (setting [8]); “R and Cured” in data set [1] (setting [9]). In addition, the “median (range) time to relapse” value in [1] (oral 10 mg/kg/day × 10 days) was 28 (28–56) days post-LDD; in data set [1] (oral 20 mg/kg/day × 10 days, 20 mg/kg/day) it was 133 (77–161) days post-LDD and 133 days post-LDD. The monkeys relapsed in [1] (oral 10 mg/kg/day × 10 days) and in data set [1] (oral 20 mg/kg/day × 10 days) was 3/4 in each case. The “day of dosing by which monkeys became blood parasite negative” value in data set [1] (oral 10 mg/kg/day × 10 days, 34 DPI) is given as ≤ 7 day of dosing. Also, the “day of treatment by which monkeys became aparasitaemic (blood)” value in data set [1] (oral 20 mg/kg/day × 10 days, 34 DPI) was ≤ 7 day of treatment. Also, in data set [2] (oral), the “efficacy against first stage HAT in monkeys” value is “highly active; also recorded: fully curative”. For the same compound, in data set [2] (oral), the “tolerability in monkeys, first stage HAT study” value was “well-tolerated”. Besides, the “decline of prodrug DB868 plasma concentrations” value in data set [3] (oral DB868, all monkeys, post-LDD) is “undetectable after 8 h”. Further, the “geometric mean plasma concentration (range) of prodrug DB868” value is recorded as 120 (100–150) nmol/L in data set [3] (oral DB868 3 mg/kg/day), 750 (420–1500) nmol/L in data set [3] (oral DB868 10 mg/kg/day) and 810 (370–1300) nmol/L in data set [3] (oral DB868 20 mg/kg/day). Also, the tolerability in rats result in data set [4] is “better tolerated than pafuramidine”. Moreover, in the data set on T. b. brucei GVR35, the “efficacy in the murine model of second stage HAT” value is given as “fully curative”. In addition, the “tolerability of dose regimens” value in [5] is on record as “well tolerated”.

On to `Nc1nc(N)nc(Nc2ccc([As]3SCC(CO)S3)cc2)n1` (stereo not drawn) [melarsoprol, reference compound], for which, in data set [1] (melarsoprol intravenously 3.6 mg/kg/day for 4 consecutive days, 3.6 mg/kg/day), the “rescue treatment of monkeys that relapsed after DB868” value was “successfully rescue-treated and 5/6”.

In the case of `CONC(=N)c1ccc(-c2ccc(-c3ccc(C(=N)NOC)cc3)o2)cc1` [pafuramidine, 2,5-bis (4-amidinophenyl)-furan-bis-O-methlylamidoxime], the “cure rate against second stage HAT in non-human primates” value in the data set with T. b. rhodesiense is reported as 0/3. For the same compound, the “efficacy in murine models of first and second stage HAT” value in the data set on African trypanosomes is listed as “fully curative”. For the same compound, the “absorptive permeability compared with the active diamidine furamidine (DB75)” value in [6] was “improved absorptive permeability”. In addition, the “efficacy against first stage HAT in monkeys” value in data set [2] (oral administration) is recorded as “fully curative”.

Take `N=C(N)c1ccc(OCCCCCOc2ccc(C(=N)N)cc2)cc1` [pentamidine, reference compound]: the “cure rate when treatment initiation was delayed to 14 days post-infection” value in data set [2] (IM, monkeys, T. b. rhodesiense KETRI 2537, ref unpublished data, TRC-KARI) is on record as 0/3. The “cure rate in first stage disease” value in data set [2] (IM, monkeys) is reported as 2/3.

Values taken from paper PMC4318582, “Chemotherapy of Second Stage Human African Trypanosomiasis: Comparison between the Parenteral Diamidine DB829 and Its Oral Prodrug DB868 in Vervet Monkeys” (PLoS Neglected Tropical Diseases, 2015).
